Key:
[1] = test system: Puccinia Recondita; assay: Preventive fungicidal activity (5 days) against Puccinia Recondita on wheat; assay type: in vivo; details: for Activity P5 NT (reduction of leaf area affected, parts developed during the test) / Activity P5 T (reduction of leaf area affected, parts treated directly) / effectiveness in containing the disease (in words): wheat; for Activity P5 NT (reduction of leaf area affected, parts developed during the test): non-treated parts (NT); for effectiveness in containing the disease (in words): summary of Table 4
Procedure: Determination of the preventive fungicidal activity (5 days) against Puccinia Recondita on wheat.
(§1) Leaves of wheat plants of the Salgemma variety, grown in pots in a conditioned environment at 20° C. and 70% of Relative Humidity (RH) were treated by spraying both sides of the leaves with the compound under examination (see Table 4 hereunder) dispersed in a hydroacetonic solution at 20% by volume of acetone.
After remaining 5 days in a conditioned environment, the plants were sprayed on both sides of the leaves with an aqueous suspension of conidia of Puccinia Recondita (2 mg of inoculum per 1 ml of solution for infection).
After spraying, the plants were kept in a humidity-saturated environment at a temperature ranging from 18 to 24° C. for the incubation period of the fungus (1 day).
At the end of this period, the plants were put in a greenhouse with a relative humidity (RH) of 70% and at a temperature of 18-24° C. for 14 days.
At the end of this period, the external symptoms of the pathogen appeared and it was therefore possible to proceed with the visual evaluation of the intensity of the infection, both on the parts treated directly with the products (T) and on the parts developed during the implementation of the test (NT).
(§2) The fungicidal activity is expressed as a percentage of the reduction, with respect to non-treated seedlings (comparison), in the area of the leaf affected by the disease (100=full effectiveness; 0=zero effectiveness).

[2] = test system: wheat seedlings; assay: Phytotoxicity (percentage of leaf necrosis) on wheat seedlings; assay type: in vivo; details: for Phytotoxicity % N.F. (leaf necrosis): wheat seedlings, scale 0-100
Procedure: as §1
At the same time, an evaluation of the phytotoxicity was effected (percentage of leaf necrosis) induced on the wheat seedlings by the application of the products: in this case the evaluation scale ranges from 0 (completely healthy plant) to 100 (completely necrotic plant).

[3] = test system: bean seedlings; assay: Phytotoxicity (percentage of leaf necrosis) on bean seedlings; assay type: in vivo; details: scale 0-100
Procedure: (§3) Bean plants cv. Borlotto of Vigevano, grown in pots in a conditioned environment, were treated by spraying both sides with the products under examination in a hydroacetonic solution with 20% by volume of acetone (vol./vol.).
At the same time, an evaluation of the phytotoxicity was effected (percentage of leaf necrosis) induced on the bean seedlings by the application of the products: in this case the evaluation scale ranges from 0 (completely healthy plant) to 100 (completely necrotic plant).

[4] = test system: Sphaerotheca Fuliginea; assay: Preventive fungicidal activity (7 days) against Sphaerotheca Fuliginea on cucumbers; assay type: in vivo
Procedure: Determination of the preventive fungicidal activity (7 days) against Sphaerotheca Fuliginea on cucumbers.
(§4) Cucumber plants cv. Lungo of China, grown in pots in a conditioned environment were treated by spraying both sides with the products under examination in a hydroacetonic solution with 20% by volume of acetone (vol./vol.).
7 days after the treatment, the plants were sprayed on the upper side with an aqueous suspension of spores of Sphaerotheca Fuliginea (200,000 spores/cc); they were then re-transferred to the conditioned environment.
At the end of the period of incubation (8 days), the evaluation of the intensity of the infection was finally effected.
as §2

[5] = test system: cucumber seedlings; assay: Phytotoxicity (percentage of leaf necrosis) on cucumber seedlings; assay type: in vivo; details: scale 0-100
Procedure: as §4
At the same time, an evaluation of the phytotoxicity was effected (percentage of leaf necrosis) induced on the cucumber seedlings by the application of the products: in this case the evaluation scale ranges from 0 (completely healthy plant) to 100 (completely necrotic plant).

[6] = test system: Uromyces Appendiculatus; assay: Preventive fungicidal activity (5 days) against Uromyces Appendiculatus on beans; assay type: in vivo
Procedure: Determination of the preventive fungicidal activity (5 days) against Uromyces Appendiculatus on beans.
as §3
After remaining 5 days in a conditioned environment at 23° C. and 70% of relative humidity, the plants were sprayed on the lower side with an aqueous suspension of spores of Uromyces Appendiculatus (200,000 spores/cc); after remaining 24 hours in a humidity-saturated environment, they were re-transferred to the conditioned environment.
After this period, the external symptoms of the pathogen appeared and it was therefore possible to proceed with the visual evaluation of the intensity of the infection.
as §2

[7] = Accelerated stability test of 5% solutions in commercial solvents (54° C., 2 weeks, HPLC); assay type: physicochemical
Procedure: Stability tests of the compositions containing compounds having formula (I) in a solvent
In order to evaluate the chemical stability of the compounds having Formula (I) in a solvent, 5% solutions were prepared, containing 250 mg of compounds Nr. 1, 17, 39 and 40, dissolved in 4.75 g of various commercial solvents used for the preparation of emulsifiable concentrates.
The resulting solutions were put in an oven at 54° C. for 2 weeks (according to Cipac MT 46.1 update 2012) and then analyzed by means of HPLC in order to verify the concentration of the active ingredient contained therein. The percentage of degradation of the compound having Formula (I) was therefore obtained, after the accelerated stability test.

[8] = solvent ADMA 10 (N,N-dimethyldecanamide)
[9] = solvent Alkamuls T/20 (ethoxylated sorbitan monolaurate)
[10] = solvent CME (rapeseed methyl ester)
[11] = solvent FMPC (N-formylmorpholine and propylene carbonate)
[12] = solvent Green 25 (dimethylsulfoxide, acetophenone, 2-ethylhexyl acetate)
[13] = solvent Purasolv BL (butyl lactate)
[14] = solvent RPDE (dimethyl glutarate, dimethyl succinate, dimethyl adipate)

Row | Compound | Activity P5 NT (reduction of leaf area affected, parts developed during the test) ([1]; 125 ppm) | Activity P5 T (reduction of leaf area affected, parts treated directly) ([1]; 125 ppm) | Activity P5 NT (reduction of leaf area affected, parts developed during the test) ([1]; 250 ppm) | Activity P5 T (reduction of leaf area affected, parts treated directly) ([1]; 250 ppm) | Phytotoxicity % N.F. (leaf necrosis) ([2]; 125 ppm) | Phytotoxicity % N.F. (leaf necrosis) ([2]; 250 ppm) | Phytotoxicity % N.F. (leaf necrosis) ([3]; 30 ppm) | Phytotoxicity % N.F. (leaf necrosis) ([3]; 125 ppm) | Activity P5 ([4]; 30 ppm) | Activity P5 ([4]; 125 ppm) | effectiveness in containing the disease (in words) [1] | Activity P5 ([6]; 30 ppm) | Activity P5 ([6]; 125 ppm) | symptoms of phytotoxicity on the plant (in words) ([2]; wheat, summary of Table 4) | percentage of degradation [7, 8] | percentage of degradation [7, 9] | percentage of degradation [7, 10] | percentage of degradation [7, 11] | percentage of degradation [7, 12] | percentage of degradation ([7]; solvent Propylene carbonate) | further results
1 | CCN(C)C=Nc1cc(Br)c(OCCC(C)C)nc1C [CR1, N-ethyl-N-methyl-N′-[5-bromo-2-methyl-6-(3-methyl-butyloxy)-3-pyridyl]-formamidine, reference compound] | 20% | 60% | 50% | 80% | 5 % N.F. | 10 % N.F. | – | – | – | – | – | – | – | – | – | – | – | – | – | – | –
2 | CCN(C)C=Nc1cc(C)c(SCCC(C)C)nc1C [Compound 2] | 85% | 100% | 95% | 100% | 0 % N.F. | 0 % N.F. | 0 % N.F. | 0 % N.F. | 99% | 100% | effective in containing the disease | 100% | 100% | do not show any symptoms of phytotoxicity | – | – | – | – | – | – | Phytotoxicity % N.F. (leaf necrosis) ([5]; 30 ppm): 0 % N.F.; Phytotoxicity % N.F. (leaf necrosis) ([5]; 125 ppm): 2 % N.F.
3 | CCN(C)C=Nc1cc(C)c(SCc2cccc(C(F)(F)F)c2)nc1C [Compound 3, N-ethyl-N-methyl-N′-2,5-dimethyl-6-{[3(trifluoromethyl)benzyl]thio}pyridyl-3-formamidine] | 93% | 100% | 98% | 100% | – | – | – | – | 98% | 100% | effective in containing the disease | 100% | 100% | – | – | – | – | – | – | – | Phytotoxicity % N.F. (leaf necrosis) ([5]; 30 ppm): 1 % N.F.; Phytotoxicity % N.F. (leaf necrosis) ([5]; 125 ppm): 3 % N.F.; symptoms of phytotoxicity on the plant (in words) ([2]; in vivo): do not show any symptoms of phytotoxicity
4 | CCN(C)C=Nc1cc(Br)c(SCCC(C)C)nc1C [Compound 5] | 45% | 85% | 65% | 100% | 0 % N.F. | 0 % N.F. | – | – | – | – | effective in containing the disease | – | – | do not show any symptoms of phytotoxicity | – | – | – | – | – | – | activity compared with CR1 (in words) ([1]; also at low dosages (125 ppm)): more active
5 | CCCCCCSc1nc(C)c(N=CN(C)CC)cc1C [Compound 17] | 55% | 95% | 65% | 98% | 0 % N.F. | 0 % N.F. | 0 % N.F. | 0 % N.F. | – | – | effective in containing the disease | 100% | 100% | do not show any symptoms of phytotoxicity | 1.57% | 74.78% | 16% | 0.79% | 2.96% | 0% | percentage of degradation [7, 13]: 100%; percentage of degradation [7, 14]: 1.93%
6 | CCN(C)C=Nc1cc(C)c(SCc2c(F)cccc2F)nc1C [Compound 39] | 88% | 95% | 97% | 98% | 0 % N.F. | 0 % N.F. | 0 % N.F. | 0 % N.F. | – | – | effective in containing the disease | 100% | 100% | do not show any symptoms of phytotoxicity | 0% | 79.78% | 17.31% | 1.53% | 1.84% | 0.61% | percentage of degradation [7, 13]: 100%; percentage of degradation [7, 14]: 1.13%
7 | CCN(C)C=Nc1cc(C)c(SCC2CCCCC2)nc1C [Compound 40] | 55% | 80% | 70% | 90% | 0 % N.F. | 0 % N.F. | 0 % N.F. | 0 % N.F. | – | – | effective in containing the disease | 100% | 100% | do not show any symptoms of phytotoxicity | 1.09% | 81.02% | 12.76% | 0% | 2.82% | 0% | percentage of degradation [7, 13]: 100%; percentage of degradation [7, 14]: 1.71%
8 | N-ethyl-N-methyl-N′-[5-bromo-2-methyl-6-[(4-methylpentyloxy]pyridyl-3-formamidine [CR2, reference compound] | – | – | – | – | – | – | – | – | 75% | 85% | – | 80% | 90% | – | – | – | – | – | – | – | –

Source: patent US20210100246A1, “PYRIDYL-FORMAMIDINES HAVING A FUNGICIDAL ACTIVITY, THEIR AGRONOMIC COMPOSITIONS AND USE THEREOF” (ISAGRO, S.p.A., priority 2017, published 2021)
